In publication PMC9289130, “Pharmacokinetic Study of Four Major Bioactive Components of Liandan Xiaoyan Formula in Ulcerative Colitis and Control Rats Using UPLC-MS/MS” (Frontiers in Pharmacology, 2022):
Read-outs that look alike come from different tables or passages of the source.

Legend:
[1] = Pharmacokinetic study in control and DSS-induced UC rats after oral administration of LXF (serum, UPLC-MS/MS); assay type: in vivo, Sprague-Dawley (SD) rats; conditions: for AUC(0-inf) / AUC(0-t) / Cmax / Tmax / half-life / MRT inf: male, Sprague-Dawley, rat, serum, po, 3.3 g/kg, oral LXF 3.30 g/kg, rat serum, n = 8, mean ± SD; for MRT inf: read-out: MRT0→∞
Description: Sixteen male Sprague-Dawley (SD) rats (220 ± 10 g) were provided from the Liaoning Changsheng Biotechnology Co., Ltd (Benxi, China; with license No. of SCXK, 2020-0001). The rats were kept in an environment (22 ± 2°C, relative humidity 50 ± 5%) under a 12-h light-dark cycle with a free diet and water for 3 days. All experiments on animals were conducted strictly under the related ethics regulations of the Committee on Use and Care of Animals of Guangzhou University of Chinese Medicine (Guangzhou, China) (No. 712052).
All rats were assigned equally and randomly to the control and model groups. The rats of the model group were free to access 4% DSS for 7 days to induce UC, and rats of the control group were given pure water ([Chen et al., 2020]). Before the pharmacokinetics study, the DSS-induced UC rats (model) were established successfully (Supplementary Material Part B).
After fasting for 12 h, the rats were orally administered LXF at a 3.30 g/kg dose according to Prescription preparation of Chinese medicine, volume 10 ([Lu et al., 2021]). Serum samples (approximately 0.5 ml) were collected from the fosse orbital vein using 1.5 ml polythene tubes before the administration and at 0.083, 0.25, 0.5, 1, 1.5, 2.5, 4, 6, 8, 12, 24, 36, and 48 h after dosing and centrifuged immediately at 3,500 rpm for 15 min. Serum was transferred into clean tubes and stored at −80°C.
100 μl of IS solution (960 ng/ml) was added to a 100 μl serum sample and vortex-mixed for 0.5 min, and then 800 μl of methanol was added and vortex-mixed for 3 min. After centrifugation at 12,000 rpm for 15 min (4°C), the supernatant of the mixture was transferred to another vial and evaporated to dryness with nitrogen purging. The residue was resolved with 100 μ of methanol, vortex-mixed for 1 min, and centrifuged at 12,000 rpm for 10 min (4°C). A 2 μl aliquot of the supernatant was injected into the UPLC-MS/MS system for analysis.
Chromatographic analysis was performed using UPLC-MS/MS, utilizing a Finnigan Surveyor auto-sampler and a Finnigan Surveyor LC pump combined with a triple quadrupole TSQ Quantum mass spectrometer electrospray ionization (ESI) interface (Thermo Fisher, Palo Alto, CA). The chromatographic separation was performed on the Waters Acquity UPLC BEH C18 column (2.1 mm × 100 mm; 1.7 µm). The mobile phase consisted of acetonitrile (A) and 0.1% formic acid (B) with a gradient elution program (0-5 min, 20% A-35% A; 5-6 min, 35% A-100% A; 6–8min, 100% A; 8–8.5 min, 100% A-20% A; 8.5–10.5 min, 20% A) at a flow rate of 0.4 ml/min. The column temperature was maintained at 40°C throughout the analysis. The injection volume was 2 μl.
Quantification was performed using multiple reaction monitoring (MRM) in the positive ionization mode, and the optimized MRM parameters of the four analytes and IS are listed in Table 1. The MRM transition, retention time (RT), and collision energy (CE) values were based on Thermo Foundation 2.0. Curtain gas pressure at 35 psi, ion source gas 1 and gas 2 at 55 psi, ion spray voltage at 5500 V, and temperature at 500°C.
Non-compartment model pharmacokinetic parameters, including the time to reach the maximum serum concentration (Tmax), the maximum serum concentration (Cmax), the elimination half-time (T1/2), the area under the serum concentration-time curve (AUC), and mean residence time (MRT), were calculated by DAS (version 3.2.8, Chinese Pharmacological Association, Anhui, China). The difference between the control and model groups was statistically analyzed using SPSS 26.0 (IBM Company, Chicago). All data in this study were subjected to a one-way analysis of variance (ANOVA) and then expressed by mean ± standard deviation (SD). LSD t-test was applied when the homogeneity of variance assumptions was satisfied; otherwise, Dunnett’s t-test was used. A p < 0.05 was considered statistically significant.

[2] = Stability test of QC samples in rat serum; assay type: in vitro ADME; conditions: n = 6
Description: Quality control (QC) samples at low, middle and high concentrations (61.50, 384.38, and 4,000.00 ng/ml for andrographolide; 24.00, 150.00, and 1,500.00 ng/ml for dehydroandrographolide; 6.91, 43.20, and 450.00 ng/ml for 1-methoxicabony-β-carboline; 6.30, 39.38, and 400.00 ng/ml for 4-methoxy-5-hydroxy-canthin-6-one) were also prepared by the same procedures.
Recovery was determined at three QC levels and calculated by comparing the compound standard peak areas obtained from extracted samples with post-extracted samples spiked with the compound. Matrix effects were calculated by matching spiking post-extracted blank serum samples with corresponding standard clean solutions at three concentrations of QC samples.

[3] = 4°C for 24 h, high QC (nominal 4,000.00 / 1,500.00 / 450.00 / 400.00 ng/ml for compounds 1-4)
[4] = 4°C for 24 h, low QC (nominal 61.50 / 24.00 / 6.91 / 6.30 ng/ml for compounds 1-4)
[5] = 4°C for 24 h, middle QC (nominal 384.38 / 150.00 / 43.20 / 39.38 ng/ml for compounds 1-4)
[6] = 25°C for 12 h, high QC (nominal 4,000.00 / 1,500.00 / 450.00 / 400.00 ng/ml for compounds 1-4)
[7] = 25°C for 12 h, low QC (nominal 61.50 / 24.00 / 6.91 / 6.30 ng/ml for compounds 1-4)
[8] = 25°C for 12 h, middle QC (nominal 384.38 / 150.00 / 43.20 / 39.38 ng/ml for compounds 1-4)
[9] = three freeze-thaw, high QC (nominal 4,000.00 / 1,500.00 / 450.00 / 400.00 ng/ml for compounds 1-4)
[10] = three freeze-thaw, low QC (nominal 61.50 / 24.00 / 6.91 / 6.30 ng/ml for compounds 1-4)
[11] = three freeze-thaw, middle QC (nominal 384.38 / 150.00 / 43.20 / 39.38 ng/ml for compounds 1-4)
[12] = −80°C for 30 days, high QC (nominal 4,000.00 / 1,500.00 / 450.00 / 400.00 ng/ml for compounds 1-4)
[13] = −80°C for 30 days, low QC (nominal 61.50 / 24.00 / 6.91 / 6.30 ng/ml for compounds 1-4)
[14] = −80°C for 30 days, middle QC (nominal 384.38 / 150.00 / 43.20 / 39.38 ng/ml for compounds 1-4)

Row | Structure (SMILES) | AUC(0-inf) ([1]; UC group (4% DSS for 7 days)) | AUC(0-t) ([1]; UC group (4% DSS for 7 days)) | Cmax ([1]; UC group (4% DSS for 7 days)) | Tmax ([1]; UC group (4% DSS for 7 days)) | half-life ([1]; UC group (4% DSS for 7 days)) | MRT inf ([1]; UC group (4% DSS for 7 days)) | AUC(0-inf) ([1]; control group) | AUC(0-t) ([1]; control group) | Cmax ([1]; control group) | Tmax ([1]; control group) | half-life ([1]; control group) | MRT inf ([1]; control group) | Stability, mean concentration found [2, 3] | Stability, mean concentration found [2, 4] | Stability, mean concentration found [2, 5] | Stability, mean concentration found [2, 6] | Stability, mean concentration found [2, 7] | Stability, mean concentration found [2, 8] | Stability, mean concentration found [2, 9] | Stability, mean concentration found [2, 10] | also measured
1 | COC(=O)c1nccc2c1[nH]c1ccccc12 [1-methoxicabony-β-carboline] | 444 ± 154 ng·h/mL | 424 ± 143 ng·h/mL | 160 ± 18.9 ng/mL | 1.13 ± 0.23 h | 1.2 ± 0.41 h | 2.23 ± 0.63 h | 219 ± 79.2 ng·h/mL | 215 ± 78.4 ng·h/mL | 129 ± 33.9 ng/mL | 0.69 ± 0.37 h | 1.02 ± 0.43 h | 1.52 ± 0.33 h | 442.09 ± 15.98 ng/mL | 7.71 ± 0.12 ng/mL | 44.64 ± 3.27 ng/mL | 439.66 ± 16.78 ng/mL | 7.09 ± 0.16 ng/mL | 42.21 ± 3.37 ng/mL | 440.84 ± 17.31 ng/mL | 6.63 ± 0.51 ng/mL | Tmax and MRT0–∞ in the UC group compared with the control group ([1]; oral LXF, p < 0.05): longer; Stability, mean concentration found [2, 11]: 42.04 ± 2.18 ng/mL; Stability, mean concentration found [2, 12]: 436.91 ± 13.57 ng/mL; Stability, mean concentration found [2, 13]: 7.43 ± 0.66 ng/mL; Stability, mean concentration found [2, 14]: 42.66 ± 1.92 ng/mL
2 | COc1c(O)c(=O)n2c3ccccc3c3ccnc1c32 [4-methoxy-5-hydroxy-canthin-6-one] | 817 ± 177 ng·h/mL | 759 ± 142 ng·h/mL | 419 ± 104 ng/mL | 0.43 ± 0.47 h | 3.3 ± 1.52 h | 3.66 ± 1.55 h | 595 ± 117 ng·h/mL | 554 ± 74.2 ng·h/mL | 395 ± 97.7 ng/mL | 0.08 h | 3.15 ± 0.96 h | 3.59 ± 1.43 h | 391.53 ± 10.08 ng/mL | 6.38 ± 0.41 ng/mL | 39.35 ± 4.12 ng/mL | 387.02 ± 9.84 ng/mL | 5.50 ± 0.37 ng/mL | 40.41 ± 3.15 ng/mL | 386.59 ± 20.07 ng/mL | 5.65 ± 0.12 ng/mL | Shape of the serum concentration-time curve ([1]; UC group, oral LXF): double peaks; Shape of the serum concentration-time curve ([1]; control group, oral LXF): not showed; Stability, mean concentration found [2, 11]: 41.43 ± 0.76 ng/mL; Stability, mean concentration found [2, 12]: 381.78 ± 17.23 ng/mL; Stability, mean concentration found [2, 13]: 6.39 ± 0.23 ng/mL; Stability, mean concentration found [2, 14]: 42.93 ± 1.44 ng/mL
3 | C=C1CC[C@@H]2[C@](C)(CO)[C@H](O)CC[C@@]2(C)[C@@H]1C/C=C1/C(=O)OC[C@H]1O [andrographolide] | 18400 ng·h/mL | 15900 ng·h/mL | 4090 ng/mL | 0.69 ± 0.26 h | 7.4 ± 5.02 h | 7.4 ± 5.02 h | 7120 ng·h/mL | 6430 ng·h/mL | 2310 ng/mL | 0.53 ± 0.21 h | 8.77 ± 2.96 h | 8.42 ± 2.75 h | 3,915.74 ± 98.45 ng/mL | 58.54 ± 4.47 ng/mL | 383.22 ± 9.64 ng/mL | 3,896.61 ± 129.89 ng/ml | 56.68 ± 4.20 ng/mL | 399.59 ± 9.79 ng/mL | 3,923.07 ± 110.39 ng/mL | 60.13 ± 3.34 ng/mL | Stability, mean concentration found [2, 11]: 396.68 ± 13.05 ng/mL; Stability, mean concentration found [2, 12]: 3,904.68 ± 126.18 ng/ml; Stability, mean concentration found [2, 13]: 58.97 ± 2.93 ng/mL; Stability, mean concentration found [2, 14]: 370.23 ± 17.30 ng/mL
